Measured values taken from patent publication US8710233B2 (Gruenenthal GmbH, priority 2005, dated 2014).

Key:
[1] = tested on: formaldehyde induced nociceptive behaviour; assay: Formaldehyde test in mice, second (late) phase; type: in vivo, mouse; details: mouse, read-out: inhibition formaldehyde test (n = 10); for inhibition in vivo at 0.3 mg/kg: 0.3 mg/kg body weight po; for inhibition in vivo at 1 mg/kg: 1 mg/kg body weight po
[2] = target: T1, vanilloid receptor 1 (VR1/TRPV1) of the rat species (Rattus norvegicus, UniProt O35433); assay: FLIPR Ca2+ influx assay on rat dorsal root ganglia cells (pharmacological method I); type: cell-based; details: for Ki: table 4, capsaicin, read-out: Ki (rat) Cap.
T1 construct: The spinal column is removed from decapitated rats; from tissue; host or cells: primary cells dissociated from rat dorsal root ganglia
T1 sequence (O35433 whole entry): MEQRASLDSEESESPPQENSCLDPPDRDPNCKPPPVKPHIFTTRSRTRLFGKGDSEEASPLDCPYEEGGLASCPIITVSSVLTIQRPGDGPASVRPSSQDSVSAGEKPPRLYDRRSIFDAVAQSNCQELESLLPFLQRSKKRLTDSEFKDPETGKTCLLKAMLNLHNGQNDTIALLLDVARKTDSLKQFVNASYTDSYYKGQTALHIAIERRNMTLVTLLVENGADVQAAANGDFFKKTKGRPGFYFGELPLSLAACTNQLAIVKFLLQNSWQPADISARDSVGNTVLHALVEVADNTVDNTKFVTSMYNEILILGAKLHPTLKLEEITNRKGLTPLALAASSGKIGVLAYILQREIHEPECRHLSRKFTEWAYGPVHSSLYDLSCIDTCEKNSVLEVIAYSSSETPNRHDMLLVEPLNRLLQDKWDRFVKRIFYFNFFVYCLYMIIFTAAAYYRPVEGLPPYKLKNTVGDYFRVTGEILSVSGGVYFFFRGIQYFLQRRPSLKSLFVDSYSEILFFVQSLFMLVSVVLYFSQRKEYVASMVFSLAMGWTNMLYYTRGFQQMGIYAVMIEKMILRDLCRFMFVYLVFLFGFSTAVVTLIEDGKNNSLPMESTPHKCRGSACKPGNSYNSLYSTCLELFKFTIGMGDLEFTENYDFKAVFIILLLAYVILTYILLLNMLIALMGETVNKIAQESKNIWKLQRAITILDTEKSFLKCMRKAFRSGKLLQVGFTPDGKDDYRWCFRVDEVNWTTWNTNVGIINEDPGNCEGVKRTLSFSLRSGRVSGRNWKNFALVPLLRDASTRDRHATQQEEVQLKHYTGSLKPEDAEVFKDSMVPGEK
Outline: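 Primary rat dorsal root ganglion cells loaded with 2 μM Fluo-4, Ca2+ influx read on FLIPR as peak fluorescence. Triplicates, at least 3 independent experiments.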

vanilloid receptor (VR1) = target: T2, vanilloid receptor (VR1) (Homo sapiens, UniProt Q8NER1); assay: FLIPR Ca2+ influx assay on CHO K1 cells transfected with the VR1 gene (pharmacological method II); type: cell-based; details: table 4; capsaicin; read-out: Ki (human) Cap.
T2 construct: expressed in transfected cells; host or cells: CHO K1 cells (ECACC), stably transfected
T2 sequence (Q8NER1 whole entry): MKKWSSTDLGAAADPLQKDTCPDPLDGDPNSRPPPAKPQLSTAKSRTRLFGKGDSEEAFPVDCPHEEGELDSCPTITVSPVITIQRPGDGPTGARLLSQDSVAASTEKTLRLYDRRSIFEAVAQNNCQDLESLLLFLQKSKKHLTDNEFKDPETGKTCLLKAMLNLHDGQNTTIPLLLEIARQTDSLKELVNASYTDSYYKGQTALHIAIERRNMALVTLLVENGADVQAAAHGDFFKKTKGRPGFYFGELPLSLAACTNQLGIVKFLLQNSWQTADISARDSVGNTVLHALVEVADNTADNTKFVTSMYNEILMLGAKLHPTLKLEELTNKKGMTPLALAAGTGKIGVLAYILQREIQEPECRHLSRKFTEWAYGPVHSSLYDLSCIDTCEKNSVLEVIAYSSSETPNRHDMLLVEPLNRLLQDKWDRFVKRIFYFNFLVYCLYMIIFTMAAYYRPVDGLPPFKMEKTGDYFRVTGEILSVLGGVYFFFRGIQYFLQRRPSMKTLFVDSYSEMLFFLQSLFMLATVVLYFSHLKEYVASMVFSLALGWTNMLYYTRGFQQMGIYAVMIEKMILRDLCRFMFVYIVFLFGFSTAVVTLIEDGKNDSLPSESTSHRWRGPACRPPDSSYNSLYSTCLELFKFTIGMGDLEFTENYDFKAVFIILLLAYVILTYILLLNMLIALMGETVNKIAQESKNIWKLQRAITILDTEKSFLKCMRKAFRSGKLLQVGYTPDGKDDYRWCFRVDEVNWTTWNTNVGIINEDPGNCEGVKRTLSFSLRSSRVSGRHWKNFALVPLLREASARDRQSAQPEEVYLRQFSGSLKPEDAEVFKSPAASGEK

VR1/TRPV1 receptor = VR1/TRPV1 receptor (Homo sapiens, UniProt Q8NER1); assay: IC50 (human) after pH stimulus; type: cell-based; details: for IC50: table 4
Chain of VR1/TRPV1 receptor (Q8NER1 whole entry): as above

[3] = tested on: capsaicin induced hypothermie; assay: Hypothermie assay in the mouse (capsaicin induced hypothermie); type: in vivo; details: mouse, read-out: inhibition hypothermie (n = 5); for inhibition in vivo at 0.3 mg/kg: 0.3 mg/kg body weight po
Description: V. Hypothermie Assay an der Maus
Male NMRI mice (weight 25-35 gram, supplier IFFA CREDO, Bruxelles, Belgium) are used in the hypothermie assay. The animals are kept under standardized conditions: light/darkness interval (6:00 to 18:00 light; 18:00 to 6:00 Uhr darkness), room temperature 19-22° C., relative humidity 35-70%, 15 times per hour change of compartment air, airflow <0.2 m/sec. The animals were fed on a standardized diet (ssniff diet, ssniff Spezialdiäten GmbH, Soest, Germany) and tap water. Water and diet were detracted during the experiment. All animals were used once in the experiment. The animals were allowed to adapt to the experimental conditions for at least 5 days.
The acute application of capsaicin (VR-1 agonist) leads to a decrease of the core body temperature in rat and mice via stimulation of heat sensors. Only compounds which act as specific VR-1-receptor antagonists can antagonize the capsaicin induced hypothermie. In contrast, morphine induced hypothermie is not antagonized by VR-1 antagonists. Thus, this experiment is suitable for the determination of compounds that act as VR1-antagonists via their effect on the core body temperature.
For the determination of the core body temperature a digital thermometer was used (Thermalert TH-5, physitemp, Clifton N.J., USA). The measuring head was inserted into the rectum.
The individual basis value is determined by measuring the body temperature twice in an interval of about half an hour. […] […] The test compound is given 10 min (i.v.) or 15 min (p.o.), respectively, before application of capsaicin. The body temperature is determined 7.5/15 and 30 min after application of capsaicin (i.v.+i.p.) or 15/30/60/90/120 min after application of capsaicin (p.o.+i.p.), respectively. In addition, another group of mice is only given the test compound or a vehicle control.
The measuring points are given as average values±S.E.M. of the absolute values. The antagonistic effect is given in percent of inhibition of capsaicin induced hypothermie.

Structure (SMILES)	inhibition in vivo at 1 mg/kg [1] [%]	Ki [2] [nM]	Ki (vanilloid receptor (VR1)) [nM]	other results
CC(C(=O)NCc1ccc(C(F)(F)F)cc1N1CCCC1)c1ccc(NS(C)(=O)=O)c(F)c1 (centres unmarked) [Compound 34]	–	–	–	inhibition in vivo at 0.3 mg/kg [1]: 51%
CC(C(=O)NCc1ccc(C(F)(F)F)nc1-c1cccs1)c1ccc(NS(C)(=O)=O)c(F)c1 (centres unmarked) [Compound 88]	16	–	–	–
CC(C(=O)NCc1ccc(C(F)(F)F)nc1NC1CCCCC1)c1ccc(NS(C)(=O)=O)c(F)c1 (centres unmarked) [Compound 90]	37	–	–	–
CC(C(=O)NCc1ccc(C(F)(F)F)nc1N1CCCC1)c1ccc(NS(C)(=O)=O)c(Br)c1 (centres unmarked) [Compound 103]	50	–	–	–
CCCCOc1cc(C(C)(C)C)ccc1CNC(=O)C(C)c1ccc(NS(C)(=O)=O)c(F)c1 (centres unmarked) [Compound 108]	24	–	–	–
CC(C(=O)NCc1ccc(C(F)(F)F)nc1-c1ccc(C(C)(C)C)cc1)c1ccc(NS(C)(=O)=O)c(F)c1 (centres unmarked) [Compound 117]	41	–	–	–
CC(C(=O)NCc1ccc(C(F)(F)F)nc1SC1CCCCC1)c1ccc(NS(C)(=O)=O)c(F)c1 (centres unmarked) [Compound 126]	–	–	–	inhibition in vivo at 0.3 mg/kg [1]: 69%
Cc1cc(C(C)C(=O)NCc2ccc(C(F)(F)F)nc2N2CCCCC2)ccc1NS(C)(=O)=O (centres unmarked) [Compound 127]	25	–	–	–
CC(C(=S)NCc1ccc(C(F)(F)F)nc1N1CCCC1)c1ccc(NS(C)(=O)=O)c(F)c1 (centres unmarked) [Compound 129]	3	–	–	–
CC(C(=S)NCc1ccc(C(F)(F)F)nc1-c1ccc(F)cc1)c1ccc(NS(C)(=O)=O)c(F)c1 (centres unmarked) [Compound 130]	55	–	–	–
CC(C(=O)NCc1ccc(C(F)(F)F)nc1-c1cccc(F)c1)c1ccc(NS(C)(=O)=O)c(F)c1 (centres unmarked) [Compound 148]	46	–	–	–
COC1CCN(c2nc(C(F)(F)F)ccc2CNC(=O)C(C)c2ccc(NS(C)(=O)=O)c(F)c2)CC1 (centres unmarked) [Compound 159]	14	–	–	–
CCCCOC1CCN(c2nc(C(F)(F)F)ccc2CNC(=O)C(C)c2ccc(NS(C)(=O)=O)c(F)c2)CC1 (centres unmarked) [Compound 160]	14	–	–	–
CC(C(=O)NCc1ccc(C(F)(F)Cl)nc1OC1CCCC1)c1ccc(NS(C)(=O)=O)c(F)c1 (centres unmarked) [Compound 166]	72	–	–	–
CCCCN(C)c1nc(C(F)(F)F)ccc1CNC(=O)C(C)c1ccc(NS(C)(=O)=O)c(F)c1 (centres unmarked) [Compound 167]	–	–	–	inhibition in vivo at 0.3 mg/kg [1]: 56%
CCC1CCC(Oc2nc(C(F)(F)F)ccc2CNC(=O)C(C)c2ccc(NS(C)(=O)=O)c(F)c2)CC1 (centres unmarked) [Compound 171]	46	–	–	–

Structure (SMILES)	inhibition in vivo at 1 mg/kg [1] [%]	Ki [2] [nM]	Ki (vanilloid receptor (VR1)) [nM]	other results
CC(C(=O)NCc1ccc(C(F)(F)F)cc1N1CCCCCC1)c1ccc(NS(C)(=O)=O)c(F)c1 (centres unmarked) [Compound 174]	49	–	–	–
CC(C(=O)NCc1ccc(C(F)(F)F)nc1OCc1ccncc1)c1ccc(NS(C)(=O)=O)c(F)c1 (centres unmarked) [Compound 177]	24	–	–	inhibition at 0.1 µM ([2]; read-out: inhibition in percent, Ki (rat) Cap.): 9%
CC(C(=O)NCc1ccc(C(F)(F)F)nc1OCCc1ccccc1)c1ccc(NS(C)(=O)=O)c(F)c1 (centres unmarked) [Compound 178]	28	–	–	–
CC(C(=O)NCc1ccc(C(F)(F)F)nc1N1CCN(c2ccc(F)cc2)CC1)c1ccc(NS(C)(=O)=O)c(F)c1 (centres unmarked) [Compound 179]	22	–	–	–
CC(C(=O)NCc1ccc(C(F)(F)Cl)nc1OCc1ccccn1)c1ccc(NS(C)(=O)=O)c(F)c1 (centres unmarked) [Compound 182]	8	–	–	–
CC(C(=O)NCc1ccc(C(F)(F)F)nc1N1CCC(F)CC1)c1ccc(NS(C)(=O)=O)c(F)c1 (centres unmarked) [Example 138, 2-(3-fluoro-4-methylsulfonamido-phenyl)-N-(4-fluoro-6′-trifluoromethyl-3,4,5,6-tetrahydro-2H-[1,2′]bipyridinyl-3′-ylmethyl)-propionamide]	–	1.2	0.5	IC50 (VR1/TRPV1 receptor): 19.8 nM; inhibition in vivo at 0.3 mg/kg [3]: 0%
CC(C(=O)NCc1ccc(C(F)(F)F)nc1N1CC=CCC1)c1ccc(NS(C)(=O)=O)c(F)c1 (centres unmarked) [Example 139, 2-(3-fluoro-4-methylsulfonamido-phenyl)-N-(6′-trifluoromethyl-3,6-dihydro-2H-[1,2′]bipyridinyl-3′-ylmethyl)-propionamide]	–	0.9	0.3	IC50 (VR1/TRPV1 receptor): 12.1 nM; inhibition in vivo at 0.3 mg/kg [3]: 43%
CC(C(=O)NCc1ccc(C(F)(F)F)nc1-c1ccc(Cl)cc1)c1ccc(NS(C)(=O)=O)c(F)c1 (centres unmarked) [Example 147, N-[2-(4-chloro-phenyl)-6-trifluoromethyl-pyridin-3-ylmethyl]-2-(3-fluoro-4-methylsulfonamido-phenyl)-propionamide]	–	1	0.7	IC50 (VR1/TRPV1 receptor): 10.4 nM; inhibition in vivo at 0.3 mg/kg [3]: 3%
CC(C(=O)NCc1ccc(C(C)(C)C)cc1OC1CCCCC1)c1ccc(NS(C)(=O)=O)c(F)c1 (centres unmarked) [Example 154, N-(4-tert-butyl-2-cyclohexyloxy-benzyl)-2-(3-fluoro-4-methylsulfonamido-phenyl)-propionamide]	–	1.7	8.1	IC50 (VR1/TRPV1 receptor): 534 nM; inhibition in vivo at 0.3 mg/kg [3]: 12%
CC(C(=O)NCc1ccc(C(F)(F)F)nc1N1Cc2ccccc2C1)c1ccc(NS(C)(=O)=O)c(F)c1 (centres unmarked) [Example 188, N-[2-(1,3-dihydro-isoindol-2-yl)-6-trifluoromethyl-pyridin-3-ylmethyl]-2-(3-fluoro-4-methylsulfonamido-phenyl)-propionamide]	–	5	5	IC50 (VR1/TRPV1 receptor): 192 nM; inhibition in vivo at 0.3 mg/kg [3]: 0%
CC(C(=O)NCc1ccc(C(F)(F)F)nc1N1CCN(c2ncccc2Cl)CC1C)c1ccc(NS(C)(=O)=O)c(F)c1 (centres unmarked) [Example 194, N-{2-[4-(3-chloro-pyridin-2-yl)-2-methyl-piperazin-1-yl]-6-trifluoromethyl-pyridin-3-ylmethyl}-2-(3-fluoro-4-methylsulfonamido-phenyl)-propionamide]	–	3.8	4.1	inhibition at 1 µM (VR1/TRPV1 receptor; @ 1 μM, ne = no effect, read-out: inhibition in percent, IC50 (human) after pH stimulus): 21%; inhibition in vivo at 0.3 mg/kg [3]: 14%
CC(C(=O)NCc1ccc(C(F)(F)F)cc1OCc1ccccc1)c1ccc(NS(C)(=O)=O)c(F)c1 (centres unmarked) [Example 209, N-(2-benzyloxy-4-trifluoromethyl-benzyl)-2-(3-fluoro-4-methylsulfonamido-phenyl)-propionamide]	–	0.2	0.9	IC50 (VR1/TRPV1 receptor): 34.9 nM; inhibition in vivo at 3 mg/kg ([3]; 3 mg/kg body weight po): 46%
CC(C(=O)NCc1ccc(C(F)(F)F)cc1N1CCN(c2ccccc2)CC1)c1ccc(NS(C)(=O)=O)c(F)c1 (centres unmarked) [Example 216]	–	0.5	2	IC50 (VR1/TRPV1 receptor): 64.7 nM; inhibition in vivo at 0.3 mg/kg [3]: 4%
COc1ccc(N2CCN(c3nc(C(F)(F)F)ccc3CNC(=O)C(C)c3ccc(NS(C)(=O)=O)c(F)c3)CC2)cc1 (centres unmarked) [Example 221, 2-(3-fluoro-4-methylsulfonamido-phenyl)-N-{2-[4-(4-methoxy-phenyl)-piperazin-1-yl]-6-trifluoromethyl-pyridin-3-ylmethyl}-propionamide]	–	1.9	2.5	IC50 (VR1/TRPV1 receptor): 44.5 nM; inhibition in vivo at 0.3 mg/kg [3]: 18%
CCCCCOc1nc(C(F)(F)F)ccc1CNC(=O)C(C)c1ccc(NS(C)(=O)=O)c(F)c1 (centres unmarked) [Example 225, 2-(3-fluoro-4-methylsulfonamido-phenyl)-N-(2-pentyloxy-6-trifluoromethyl-pyridin-3-ylmethyl)-propionamide]	–	0.5	0.7	IC50 (VR1/TRPV1 receptor): 27.3 nM; inhibition in vivo at 0.3 mg/kg [3]: 20%
